Experimental data published in patent publication US20100172983A1 (priority 2001, published 2010).

How the values were obtained:
[1] = in vivo; cited from earlier work
gastric pH = conditions: during the 8-10 hours following naproxen sodium dosing
gastroduodenal mucosa = conditions: twice daily for five days
intragastric pH = test: Emax model: esomeprazole AUC0-24 vs percent time intragastric pH>4.0 on Day 9 (Example 11); type: in vivo, human

Compound: CC(C(=O)O)c1ccc(-c2ccccc2)c(F)c1 (stereo not drawn) [flurbiprofen]
- half-life [1]: about 6 hours

Compound: COc1ccc2cc([C@H](C)C(=O)O)ccc2c1 [naproxen sodium]
- time the pH was greater than 4 (gastric pH): 4%
- patients presenting with gastroduodenal ulcers at the end of the study (gastroduodenal mucosa): 33%
- subjects with Lanza grade 3 or 4 damage (gastroduodenal mucosa; Day 5 endoscopy): 100%

Compound: CCc1cccc2c3c([nH]c12)C(CC)(CC(=O)O)OCC3 (stereo not drawn) [etodolac]
- half-life [1]: about 7 hours

Compound: Cc1cccc(Nc2ccccc2C(=O)O)c1C [mefenamic acid]
- half-life [1]: up to 4 hours

Compound: O=C(c1ccccc1)c1ccc2n1CCC2C(=O)O (stereo not drawn) [ketorolac]
- half-life [1]: 8 to 9 h

Compound: COc1ccc2nc([S@@+]([O-])Cc3ncc(C)c(OC)c3C)[nH]c2c1 [esomeprazole]
- Emax, maximal effect: % of time with intragastric pH>4.0 over the daily interval at steady state (intragastric pH; Day 9): 90.4%
- AUC0-24 value required to achieve half (or 50%) of the maximal response (EC50) (intragastric pH; Day 9, plasma esomeprazole): 713 ng·h/mL
